This is an account of results in patent US8486939B2, “Pyrimidinyl and 1,3,5-triazinyl benzimidazoles and their use in cancer therapy” (Pathway Therapeutics Inc., priority 2009, dated 2013).

Molecules are shown by their SMILES. Structures can show the parent of a compound that is named as a salt.

For series [1], the target named is p110α/p85 (Homo sapiens, UniProt P42336). As to the kind of experiment: Inhibition of isolated enzyme (lipid kinase assay, [γ33P]ATP, TLC). The format is biochemical. Particulars: recombinant enzyme, 100 μM ATP, 1 hr room temperature, average of two experiments. How it is done: (§1) Compounds were evaluated for their ability to inhibit Class I PI 3-kinase enzymes p110δ/p85, p110α/p85, and p110β/p85. Reaction mixtures comprising 0.1 μg of a recombinant enzyme, 10 μg of L-α-phosphatidylinositol, and 2× Lipid Kinase Buffer (40 mM Tris-HCl, pH 7.4, 200 mM NaCl, 1 mM EDTA), which contains either DMSO only as a control or the test compound in DMSO (the final DMSO concentration is 1%), were activated by the addition of an ATP mix (5 mM MgCl2, 100 μM ATP, and 0.1 μL [γ^33P]ATP). Reactions were incubated at room temperature for 1 hr, and then stopped by the addition of 1M HCl. The lipids were then extracted using a two step procedure. Firstly, 200 μL of chloroform/methanol (1:1) was added, the biphasic reactions mixed and centrifuged briefly, and the inorganic phase was removed and discarded. Following this, 80 μL of methanol:HCl (1:1) was added and the same procedure followed. The organic phase (70 μL) was then transferred to a clean 1.6 mL tube and the reactions were dried using a Speedvac, with no heating, for […]. The reactions were spotted onto TLC plates (Merck Ltd) and developed for 1 hr in propanol-1:2 M acetic acid (13:7). The TLC plates were then dried at room temperature and quantified using a phosphorimager (StormImager, Amersham). Nine compound concentrations were used for each test compound to determine its IC50 value. Each experiment was performed twice and the average IC50 value is used herein.

Series [2] addresses p110δ/p85 (Homo sapiens, UniProt O00329). Described as above. The format is biochemical. Particulars: recombinant enzyme, 100 μM ATP, 1 hr room temperature, average of two experiments. How it is done:
as §1

Sequence of p110α/p85 (P42336 whole entry): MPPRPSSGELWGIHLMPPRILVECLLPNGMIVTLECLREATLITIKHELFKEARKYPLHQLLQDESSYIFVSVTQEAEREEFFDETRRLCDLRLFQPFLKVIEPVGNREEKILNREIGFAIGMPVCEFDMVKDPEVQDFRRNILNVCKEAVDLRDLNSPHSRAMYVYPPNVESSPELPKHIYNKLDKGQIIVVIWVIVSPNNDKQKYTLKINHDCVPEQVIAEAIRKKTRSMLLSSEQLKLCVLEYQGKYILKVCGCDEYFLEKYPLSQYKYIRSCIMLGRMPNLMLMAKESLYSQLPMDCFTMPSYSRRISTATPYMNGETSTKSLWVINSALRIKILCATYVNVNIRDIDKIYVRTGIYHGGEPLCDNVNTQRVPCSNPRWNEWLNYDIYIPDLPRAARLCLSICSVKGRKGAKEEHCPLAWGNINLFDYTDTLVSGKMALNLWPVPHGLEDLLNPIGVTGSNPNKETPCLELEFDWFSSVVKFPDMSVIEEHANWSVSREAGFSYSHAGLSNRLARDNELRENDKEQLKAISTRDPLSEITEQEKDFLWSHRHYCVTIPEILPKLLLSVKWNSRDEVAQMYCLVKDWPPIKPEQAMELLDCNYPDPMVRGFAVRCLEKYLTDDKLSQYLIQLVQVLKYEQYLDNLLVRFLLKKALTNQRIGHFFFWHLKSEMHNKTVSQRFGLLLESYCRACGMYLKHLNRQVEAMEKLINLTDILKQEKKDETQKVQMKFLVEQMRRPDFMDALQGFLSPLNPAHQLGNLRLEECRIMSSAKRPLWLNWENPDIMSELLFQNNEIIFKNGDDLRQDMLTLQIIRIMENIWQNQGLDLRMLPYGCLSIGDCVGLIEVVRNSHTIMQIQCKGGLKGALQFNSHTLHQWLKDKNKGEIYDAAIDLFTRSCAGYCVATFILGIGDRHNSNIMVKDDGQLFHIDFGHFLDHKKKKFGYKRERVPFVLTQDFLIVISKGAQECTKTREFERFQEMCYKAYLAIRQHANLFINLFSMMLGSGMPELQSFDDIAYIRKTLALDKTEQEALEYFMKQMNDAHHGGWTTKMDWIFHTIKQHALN
Sequence of p110α/p85 (P27986 whole entry partner): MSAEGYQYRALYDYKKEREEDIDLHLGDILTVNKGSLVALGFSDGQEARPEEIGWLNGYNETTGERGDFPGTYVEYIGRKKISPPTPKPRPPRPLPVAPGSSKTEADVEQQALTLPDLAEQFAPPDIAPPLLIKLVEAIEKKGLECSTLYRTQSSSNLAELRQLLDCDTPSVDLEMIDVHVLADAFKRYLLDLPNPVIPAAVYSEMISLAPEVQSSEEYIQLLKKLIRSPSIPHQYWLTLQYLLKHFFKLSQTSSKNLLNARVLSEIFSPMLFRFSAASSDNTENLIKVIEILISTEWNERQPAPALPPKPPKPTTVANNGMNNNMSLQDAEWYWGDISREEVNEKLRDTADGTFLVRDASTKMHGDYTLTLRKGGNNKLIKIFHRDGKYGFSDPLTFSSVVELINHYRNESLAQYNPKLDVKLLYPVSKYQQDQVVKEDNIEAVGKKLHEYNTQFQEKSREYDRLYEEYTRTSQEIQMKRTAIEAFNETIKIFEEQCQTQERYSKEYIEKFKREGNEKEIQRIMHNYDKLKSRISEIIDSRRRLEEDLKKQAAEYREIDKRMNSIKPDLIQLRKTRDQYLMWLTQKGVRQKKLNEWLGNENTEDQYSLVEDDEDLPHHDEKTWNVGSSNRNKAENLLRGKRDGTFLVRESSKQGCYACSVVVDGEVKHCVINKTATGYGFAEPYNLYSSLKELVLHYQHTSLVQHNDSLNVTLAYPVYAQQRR
Sequence of p110δ/p85 (O00329 whole entry, species assumed): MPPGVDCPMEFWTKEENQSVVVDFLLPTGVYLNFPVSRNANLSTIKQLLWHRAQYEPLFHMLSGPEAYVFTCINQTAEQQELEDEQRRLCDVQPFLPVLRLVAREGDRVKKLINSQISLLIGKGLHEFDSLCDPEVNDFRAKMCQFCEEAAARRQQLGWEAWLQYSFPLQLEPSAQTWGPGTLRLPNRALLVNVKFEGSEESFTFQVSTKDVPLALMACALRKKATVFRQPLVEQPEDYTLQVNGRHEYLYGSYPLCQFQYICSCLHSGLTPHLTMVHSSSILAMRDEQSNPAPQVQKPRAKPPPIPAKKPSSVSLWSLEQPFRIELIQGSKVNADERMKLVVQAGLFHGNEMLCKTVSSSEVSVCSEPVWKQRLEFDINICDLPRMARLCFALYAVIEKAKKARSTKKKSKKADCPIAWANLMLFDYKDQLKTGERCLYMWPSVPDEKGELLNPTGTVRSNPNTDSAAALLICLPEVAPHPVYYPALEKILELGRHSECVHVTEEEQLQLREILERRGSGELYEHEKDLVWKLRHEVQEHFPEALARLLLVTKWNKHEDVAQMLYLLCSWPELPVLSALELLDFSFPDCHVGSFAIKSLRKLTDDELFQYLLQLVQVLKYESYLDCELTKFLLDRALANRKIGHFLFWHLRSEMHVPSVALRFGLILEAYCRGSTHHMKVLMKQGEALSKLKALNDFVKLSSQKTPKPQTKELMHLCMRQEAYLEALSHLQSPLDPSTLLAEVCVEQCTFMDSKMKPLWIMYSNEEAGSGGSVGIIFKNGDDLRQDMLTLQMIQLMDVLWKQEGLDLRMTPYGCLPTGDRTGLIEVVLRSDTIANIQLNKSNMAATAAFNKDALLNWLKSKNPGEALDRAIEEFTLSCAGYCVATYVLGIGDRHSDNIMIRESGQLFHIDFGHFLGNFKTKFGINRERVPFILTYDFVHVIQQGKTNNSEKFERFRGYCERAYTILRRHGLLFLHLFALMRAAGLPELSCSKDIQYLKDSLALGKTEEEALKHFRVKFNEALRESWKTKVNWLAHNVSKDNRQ
Sequence of p110δ/p85 (P27986 whole entry partner, species assumed): as the sequence (P27986 whole entry partner) above

In general, melting point refers to the temperature, or range, at which the solid turns liquid. With `COc1cccc2c1nc(C(F)F)n2-c1nc(Nc2cccnc2)nc(N2CCOCC2)n1` (as salt: methanesulfonate) [Example 2, 4-[2-(difluoromethyl)-4-methoxy-1H-benzimidazol-1-yl]-6-(4-morpholinyl)-N-(3-pyridinyl)-1,3,5-triazin-2-amine], the melting point was 279 to 282 °C.

For `FC(F)c1nc2ccccc2n1-c1nc(Nc2cncnc2)nc(N2CCOCC2)n1` (as salt: methanesulfonate) [Example 35, 4-[2-(difluoromethyl)-1H-benzimidazol-1-yl]-6-(4-morpholinyl)-N-(5-pyrimidinyl)-1,3,5-triazin-2-amine], the melting point fell in the range of 163 to 166 °C.

The molecule `COc1cc(N)cc2c1nc(C(F)F)n2-c1nc(N2CCOCC2)nc(-n2cccn2)n1` (as salt: methanesulfonate) [Example 64, 2-(Difluoromethyl)-4-methoxy-1-[4-(4-morpholinyl)-6-(1H-pyrazol-1-yl)-1,3,5-triazin-2-yl]-1H-benzimidazol-6-ylamine] gave a melting point greater than 300 °C.

`COc1cc(N)cc2c1nc(C(F)F)n2-c1nc(-c2ccn(C)n2)nc(N2CCOCC2)n1` (as salt: methanesulfonate) [Example 65, 2-(Difluoromethyl)-4-methoxy-1-[4-(1-methyl-1H-pyrazol-3-yl)-6-(4-morpholinyl)-1,3,5-triazin-2-yl]-1H-benzimidazol-6-ylamine] displayed a melting point greater than 300 °C.

Molecule `COc1cc(N)cc2c1nc(C(F)F)n2-c1nc(-c2cn[nH]c2)nc(N2CCOCC2)n1` (as salt: methanesulfonate) [Example 66, 2-(Difluoromethyl)-4-methoxy-1-[4-(4-morpholinyl)-6-(1H-pyrazol-4-yl)-1,3,5-triazin-2-yl]-1H-benzimidazol-6-ylamine] had a melting point greater than 300 °C.

Take `COc1cc(N)cc2c1nc(C(F)F)n2-c1nc(-c2cccnc2)cc(N2CCOCC2)n1` (as salt: methanesulfonate) [Example 68, 2-(Difluoromethyl)-4-methoxy-1-[4-(4-morpholinyl)-6-(3-pyridinyl)-2-pyrimidinyl]-1H-benzimidazol-6-ylamine]: the melting point is 246 °C (dec.).

By IC50 is commonly meant the point on the concentration scale where inhibition reaches its midpoint. Consider `COc1cccc2c1nc(C(F)F)n2-c1nc(Nc2cnc(Cl)nc2)nc(N2CCOCC2)n1` [Example 41, N-(2-chloro-5-pyrimidinyl)-4-[2-(difluoromethyl)-4-methoxy-1H-benzimidazol-1-yl]-6-(4-morpholinyl)-1,3,5-triazin-2-amine], for which the melting point was 295 °C (dec.). Further, in series [1], the half-maximal inhibitory concentration (IC50) is less than 100 nM. Besides, the IC50 in series [2] was less than 100 nM.

In turn, `COc1cccc2c1nc(C(F)F)n2-c1nc(Nc2cnc(N(C)CCN(C)C)nc2)nc(N2CCOCC2)n1` [Example 42, N^5-[4-[2-(difluoromethyl)-4-methoxy-1H-benzimidazol-1-yl]-6-(4-morpholinyl)-1,3,5-triazin-2-yl]-N^2-[2-(dimethylamino)ethyl]-N^2-methyl-2,5-pyrimidinediamine] displayed a melting point of 96 to 98 °C. For the same molecule, the IC50 in series [1] was less than 100 nM. Also, in series [2], the IC50 is less than 100 nM.

Turning to `COc1cccc2c1nc(C(F)F)n2-c1nc(Nc2cnc(N(C)CCCN(C)C)nc2)nc(N2CCOCC2)n1` [Example 43, N^5-[4-[2-(difluoromethyl)-4-methoxy-1H-benzimidazol-1-yl]-6-(4-morpholinyl)-1,3,5-triazin-2-yl]-N^2-[3-(dimethylamino)propyl]-N^2-methyl-2,5-pyrimidinediamine], the melting point lay in the range of 97 to 99 °C. Moreover, the half-inhibitory concentration (IC50) in series [1] is less than 100 nM. In addition, in series [2], the concentration for half-maximal inhibition (IC50) is less than 100 nM.

`CN(c1cncnc1)c1nc(N2CCOCC2)nc(-n2c(C(F)F)nc3ccccc32)n1` [Example 44, 4-[2-(difluoromethyl)-1H-benzimidazol-1-yl]-N-methyl-6-(4-morpholinyl)-N-(5-pyrimidinyl)-1,3,5-triazin-2-amine] had a melting point of 202 to 205 °C. Also, in series [1], the IC50 is less than 100 nM. Moreover, in series [2], the IC50 was less than 100 nM.

Molecule `COc1cccc2c1nc(C(F)F)n2-c1nc(N2CCOCC2)nc(N(C)c2cncnc2)n1` [Example 45, 4-[2-(difluoromethyl)-4-methoxy-1H-benzimidazol-1-yl]-N-methyl-6-(4-morpholinyl)-N-(5-pyrimidinyl)-1,3,5-triazin-2-amine] yielded a melting point of 214 to 217 °C. For the same molecule, the IC50 in series [1] was less than 100 nM. Also, the IC50 in series [2] was less than 100 nM.

The molecule `COc1cccc2c1nc(C(F)F)n2-c1nc(-c2cccnc2)nc(N2CCOCC2)n1` [Example 48, 2-(difluoromethyl)-4-methoxy-1-[4-(4-morpholinyl)-6-(3-pyridinyl)-1,3,5-triazin-2-yl]-1H-benzimidazole] showed a melting point of 208 to 210 °C. The IC50 in series [1] was less than 100 nM. Also, the half-maximal inhibitory concentration (IC50) in series [2] was less than 100 nM.

For the molecule `COc1cccc2c1nc(C(F)F)n2-c1nc(-c2ccc(N)nc2)nc(N2CCOCC2)n1` [Example 49, 5-[4-[2-(difluoromethyl)-4-methoxy-1H-benzimidazol-1-yl]-6-(4-morpholinyl)-1,3,5-triazin-2-yl]-2-pyridinamine], the melting point was 259 to 261 °C. The 50% inhibitory concentration (IC50) in series [1] is less than 100 nM. Moreover, the 50% inhibitory concentration (IC50) in series [2] was less than 100 nM.

Molecule `COc1cccc2c1nc(C(F)F)n2-c1nc(-c2cn[nH]c2)nc(N2CCOCC2)n1` [Example 50, 2-(Difluoromethyl)-4-methoxy-1-[4-(4-morpholinyl)-6-(1H-pyrazol-4-yl)-1,3,5-triazin-2-yl]-1H-benzimidazole] showed a melting point of 289 to 291 °C.

Consider `FC(F)c1nc2ccccc2n1-c1nc(-c2cccnc2)cc(N2CCOCC2)n1` [Example 51, 2-(difluoromethyl)-1-[4-(4-morpholinyl)-6-(3-pyridinyl)-2-pyrimidinyl]-1H-benzimidazole], for which the melting point lay in the range of 172 to 179 °C. Moreover, the half-inhibitory concentration (IC50) in series [1] was in the range of 100 to 1000 nM. Further, the IC50 in series [2] was 100 to 1000 nM.

In turn, `COc1ccc(-c2cc(N3CCOCC3)nc(-n3c(C(F)F)nc4ccccc43)n2)cn1` [Example 53] gave a melting point of 224 to 226 °C.

Turning to `Nc1ncc(-c2cc(N3CCOCC3)nc(-n3c(C(F)F)nc4ccccc43)n2)cn1` [Example 58, 2-[2-(difluoromethyl)-1H-benzimidazol-1-yl]-6-(4-morpholinyl)-4,5′-bipyrimidine-2′-amine], the melting point lay in the range of 281 to 285 °C.

For the molecule `COc1cccc2c1nc(C(F)F)n2-c1nc(N2CCOCC2)c2ncn(-c3cccnc3)c2n1` [Example 59, 2-[2-(difluoromethyl)-4-methoxy-1H-benzimidazol-1-yl]-6-(4-morpholinyl)-9-(3-pyridinyl)-9H-purine], the melting point lay in the range of 229 to 231 °C.

For the molecule `COc1cccc2c1nc(C(F)F)n2-c1nc(N2CCOCC2)nc2c1ncn2-c1cccnc1` [Example 61, 6-[2-(Difluoromethyl)-4-methoxy-1H-benzimidazol-1-yl]-2-(4-morpholinyl)-9-(3-pyridinyl)-9H-purine], the melting point was in the range of 206 to 209 °C.

Molecule `COc1cccc2c1nc(C(F)F)n2-c1nc(N2CCOCC2)nc2c1ncn2-c1cncnc1` [Example 62, 6-[2-(Difluoromethyl)-4-methoxy-1H-benzimidazol-1-yl]-2-(4-morpholinyl)-9-(5-pyrimidinyl)-9H-purine] gave a melting point of 238 to 240 °C.

As to `COc1cc(N)cc2c1nc(C(F)F)n2-c1nc(N2CCOCC2)nc(-n2cccn2)n1` [Example 64, 2-(Difluoromethyl)-4-methoxy-1-[4-(4-morpholinyl)-6-(1H-pyrazol-1-yl)-1,3,5-triazin-2-yl]-1H-benzimidazol-6-ylamine], the half-inhibitory concentration (IC50) in series [1] and in series [2] was less than 100 nM throughout.

For `COc1cc(N)cc2c1nc(C(F)F)n2-c1nc(-c2ccn(C)n2)nc(N2CCOCC2)n1` [Example 65, 2-(Difluoromethyl)-4-methoxy-1-[4-(1-methyl-1H-pyrazol-3-yl)-6-(4-morpholinyl)-1,3,5-triazin-2-yl]-1H-benzimidazol-6-ylamine], the IC50 in series [1] and in series [2] was less than 100 nM each time.

Consider `COc1cc(N)cc2c1nc(C(F)F)n2-c1nc(-c2cn[nH]c2)nc(N2CCOCC2)n1` [Example 66, 2-(Difluoromethyl)-4-methoxy-1-[4-(4-morpholinyl)-6-(1H-pyrazol-4-yl)-1,3,5-triazin-2-yl]-1H-benzimidazol-6-ylamine], for which the concentration for half-maximal inhibition (IC50) in series [1] and in series [2] was less than 100 nM in each case.

For `COc1cccc2c1nc(C(F)F)n2-c1nc(N2CCOCC2)nc(-n2ccnc2)n1` [Example 67, 2-(Difluoromethyl)-1-[4-(1H-imidazol-1-yl)-6-(4-morpholinyl)-1,3,5-triazin-2-yl]-4-methoxy-1H-benzimidazole], the melting point lay within 272 to 275 °C.

With `COc1cc(N)cc2c1nc(C(F)F)n2-c1nc(-c2cccnc2)cc(N2CCOCC2)n1` [Example 68, 2-(Difluoromethyl)-4-methoxy-1-[4-(4-morpholinyl)-6-(3-pyridinyl)-2-pyrimidinyl]-1H-benzimidazol-6-ylamine], the concentration for half-maximal inhibition (IC50) in series [1] and in series [2] was less than 100 nM throughout.
